Test system: patients with fasting triglyceride levels >200 mg/dl and <500 mg/dl despite statin therapy
Experiment: 12-week study: lipoprotein particle concentration (VLDL, LDL, HDL; nuclear magnetic resonance)
Format: in vivo, human
Settings: for LDL Particle Concentration, Week 12 EP Median (IQR): MITT; for LDL Particle Concentration, Percent change from Baseline, Median (IQR) / LDL Particle Concentration, Difference from placebo, Estimated median: Week 12, MITT; for LDL Particle Concentration, Difference from placebo, Estimated median: difference in percent change
From the text: Parameters (a)-(z) can be measured in accordance with any clinically acceptable methodology. For example, triglycerides, total cholesterol, HDL-C and fasting blood sugar can be sample from serum and analyzed using standard photometry techniques. VLDL-TG, LDL-C and VLDL-C can be calculated or determined using serum lipoprotein fractionation by preparative ultracentrifugation and subsequent quantitative analysis by refractometry or by analytic ultracentrifugal methodology. Apo A1, Apo B and hsCRP can be determined from serum using standard nephelometry techniques. Lipoprotein (a) can be determined from serum using standard turbidimetric immunoassay techniques. LDL particle number and particle size can be determined using nuclear magnetic resonance (NMR) spectrometry. Remnants lipoproteins and LDL-phospholipase A2 can be determined from EDTA plasma or serum and serum, respectively, using enzymatic immunoseparation techniques. Oxidized LDL, intercellular adhesion molecule-1 and interleukin-2 levels can be determined from serum using standard enzyme immunoassay techniques. These techniques are described in detail in standard textbooks, for example Tietz Fundamentals of Clinical Chemistry, 6th Ed. (Burtis, Ashwood and Borter Eds.), WB Saunders Company.
A multi-center, placebo-controlled, randomized, double-blind, 12-week study was performed to evaluate the efficacy and safety of >96% E-EPA in patients with fasting triglyceride levels >200 mg/dl and <500 mg/dl despite statin therapy (the mean of two qualifying entry values needed to be >185 mg/dl and at least one of the values needed to be >200 mg/dl). The primary objective of the study was to determine the efficacy of >96% E-EPA 2 g daily and 4 g daily, compared to placebo, in lowering fasting TG levels in patients with high risk for cardiovascular disease and with fasting TG levels 200 mg/dl and <500 mg/dl, despite treatment to LDL-C goal on statin therapy.
The secondary objectives of this study were the following: • 1. To determine the safety and tolerability of >96% E-EPA 2 g daily and 4 g daily; • 2. To determine the effect of >96% E-EPA on lipid and apolipoprotein profiles including total cholesterol (TC), non-high-density lipoprotein cholesterol (non-HDL-C), low density lipoprotein cholesterol (LDL-C), high density lipoprotein cholesterol (HDL-C), and […]; • 3. To determine the effect of >96% E-EPA on lipoprotein associated phospholipase A2 (Lp-PLA2) from baseline to week 12; • 4. To determine the effect of >96% E-EPA on low-density lipoprotein (LDL) particle number and size; • 5. To determine the effect of >96% E-EPA on oxidized LDL; • 6. To determine the effect of >96% E-EPA on fasting plasma glucose (FPG) and hemoglobin A1c (HbA1c); • 7. To determine the effect of >96% E-EPA on insulin resistance; • 8. To determine the effect of >96% E-EPA on high-sensitivity C-reactive protein (hsCRP); • 9. To determine the effects of >96% E-EPA 2 g daily and 4 g daily on the incorporation of fatty acids into red blood cell membranes and into plasma phospholipids; • 10. To explore the relationship between baseline fasting TG levels and the reduction in fasting TG levels; and • 11. To explore the relationship between changes of fatty acid concentrations in plasma and red blood cell membranes, and the reduction in fasting TG levels.
The primary efficacy variable for the double-blind treatment period was percent change in TG from baseline to Week 12 endpoint. […]

[1] = 2 g/day, 12 weeks, placebo-adjusted Hodges-Lehmann median
[2] = 4 g/day, 12 weeks, placebo-adjusted Hodges-Lehmann median
[3] = 4 g/day, 12 weeks, placebo-adjusted Hodges-Lehmann median, listed as IPE
[4] = IPE 2 g/day (n = 222), 12 weeks

CC/C=C\C/C=C\C/C=C\C/C=C\C/C=C\CCCC(=O)OCC [AMR101, ethyl eicosapentaenoate]
IDL particle concentration, Median Change From Baseline IPE 2 g/day vs Placebo [1]: 8.6% | Large HDL particle concentration, Median Change From Baseline IPE 2 g/day vs Placebo [1]: −13.5% | Large LDL particle concentration, Median Change From Baseline IPE 2 g/day vs Placebo [1]: 26.5% | Large VLDL particle concentration, Median Change From Baseline IPE 2 g/day vs Placebo [1]: −24.2% | Medium HDL particle concentration, Median Change From Baseline IPE 2 g/day vs Placebo [1]: −4.5% | Medium VLDL particle concentration, Median Change From Baseline IPE 2 g/day vs Placebo [1]: 2.6% | Small HDL particle concentration, Median Change From Baseline IPE 2 g/day vs Placebo [1]: −0.2% | Small LDL particle concentration, Median Change From Baseline IPE 2 g/day vs Placebo [1]: −14.7% | Small VLDL particle concentration, Median Change From Baseline IPE 2 g/day vs Placebo [1]: 16.5% | Total HDL particle concentration, Median Change From Baseline IPE 2 g/day vs Placebo [1]: −3.1% | Total LDL particle concentration, Median Change From Baseline IPE 2 g/day vs Placebo [1]: −7.5% | Total VLDL particle concentration, Median Change From Baseline IPE 2 g/day vs Placebo [1]: 1.8% | Reduction of median concentration of small LDL particles over baseline when adjusted for placebo control (4 g per day, 12 weeks): 13.5% | Reduction of median concentration of total HDL over baseline when adjusted for placebo (4 g per day, 12 weeks): 7.4% | Reduction of median concentration of total LDL over baseline when adjusted for placebo (4 g per day, 12 weeks): 7.7% | Reduction of median concentration of total VLDL over baseline when adjusted for placebo (4 g per day, 12 weeks): 12.2% | IDL particle concentration, Median Change From Baseline IPE 4 g/day vs Placebo [2]: 10.0% | Medium HDL particle concentration, Median Change From Baseline IPE 4 g/day vs Placebo [2]: −6.5% | Small HDL particle concentration, Median Change From Baseline IPE 4 g/day vs Placebo [2]: −2.8% | Small LDL particle concentration, Median Change From Baseline IPE 4 g/day vs Placebo [2]: −13.5% | Small VLDL particle concentration, Median Change From Baseline IPE 4 g/day vs Placebo [2]: 2.8% | Total HDL particle concentration, Median Change From Baseline IPE 4 g/day vs Placebo [2]: −7.4% | Total LDL particle concentration, Median Change From Baseline IPE 4 g/day vs Placebo [2]: −7.7% | Total VLDL particle concentration, Median Change From Baseline IPE 4 g/day vs Placebo [2]: −12.2% | Large HDL particle concentration, Median Change From Baseline IPE 4 g/day vs Placebo [3]: −31.0% | Large LDL particle concentration, Median Change From Baseline IPE 4 g/day vs Placebo [3]: 34.2% | Large VLDL particle concentration, Median Change From Baseline IPE 4 g/day vs Placebo [3]: −46.4% | Medium VLDL particle concentration, Median Change From Baseline IPE 4 g/day vs Placebo [3]: −12.1% | Small LDL particle concentration, Median Change From Baseline IPE 4 g/day vs Placebo [3]: −13.5% | Total HDL particle concentration, Median Change From Baseline IPE 4 g/day vs Placebo [3]: −7.4% | Total LDL particle concentration, Median Change From Baseline IPE 4 g/day vs Placebo [3]: −7.7% | Total VLDL particle concentration, Median Change From Baseline IPE 4 g/day vs Placebo [3]: −12.2% | LDL Particle Concentration, Week 12 EP Median (IQR) (AMR101 2g/d + statin, n 222): 1215.0 (355.0) nmol/L | LDL Particle Concentration, Percent change from Baseline, Median (IQR) (AMR101 2g/d + statin): 4.7 (29.2) % | LDL Particle Concentration, Difference from placebo, Estimated median (AMR101 2g/d + statin): −7.5 | LDL Particle Concentration, Week 12 EP Median (IQR) (AMR101 4g/d + statin, n 216): 1190.5 (512.0) nmol/L | LDL Particle Concentration, Percent change from Baseline, Median (IQR) (AMR101 4g/d + statin): 3.8 (31.8) % | LDL Particle Concentration, Difference from placebo, Estimated median (AMR101 4g/d + statin): −7.7 | IDL particle concentration, Change from Baseline % (median) [4]: 10.5% | IDL particle concentration, End of Treatment (median) [4]: 63.5 nmol/L | Large HDL particle concentration, Change from Baseline % (median) [4]: −4.0% | Large HDL particle concentration, End of Treatment (median) [4]: 2.4 µmol/L | Large LDL particle concentration, Change from Baseline % (median) [4]: 47.7% | Large LDL particle concentration, End of Treatment (median) [4]: 202.0 nmol/L | Large VLDL particle concentration, Change from Baseline % (median) [4]: −19.7% | Large VLDL particle concentration, End of Treatment (median) [4]: 10 nM | Medium HDL particle concentration, Change from Baseline % (median) [4]: 2.9% | Medium HDL particle concentration, End of Treatment (median) [4]: 7.2 µmol/L | Medium VLDL particle concentration, Change from Baseline % (median) [4]: 7.9% | Medium VLDL particle concentration, End of Treatment (median) [4]: 59.6 nmol/L | Small HDL particle concentration, Change from Baseline % (median) [4]: −0.6% | Small HDL particle concentration, End of Treatment (median) [4]: 23.8 µmol/L | Small LDL particle concentration, Change from Baseline % (median) [4]: −4.3% | Small LDL particle concentration, End of Treatment (median) [4]: 920.5 nmol/L | Small VLDL particle concentration, Change from Baseline % (median) [4]: 22.1% | Small VLDL particle concentration, End of Treatment (median) [4]: 49.6 nmol/L | Total HDL particle concentration, Change from Baseline % (median) [4]: 0.7% | Total HDL particle concentration, End of Treatment (median) [4]: 34.7 µmol/L | Total LDL particle concentration, Change from Baseline % (median) [4]: 4.7% | Total LDL particle concentration, End of Treatment (median) [4]: 1215 nmol/L | Total VLDL particle concentration, Change from Baseline % (median) [4]: 12.0%
